Data on two molecules can be found in patent publication US8592576B2, “Unsymmetrical pyrrolobenzodiazepine-dimers for treatment of proliferative diseases” (Spirogen Sarl, priority 2008, dated 2013).

Each structure is given as a SMILES string.

In test [1] the test system is K562 human chronic myeloid leukaemia cells. The test is described as follows: K562 assay, in vitro cytotoxicity (MTT). The format is cell-based. Conditions: drug incubation 1 hour or 96 hours (not specified which), dose reducing final optical density to 50% of control. How it is done:
(§1) Determination of In Vitro Cytotoxicity
K562 human chronic myeloid leukaemia cells were maintained in RPM1 1640 medium supplemented with 10% fetal calf serum and 2 mM glutamine at 37° C. in a humidified atmosphere containing 5% CO2 and were incubated with a specified dose of drug for 1 hour or 96 hours at 37° C. in the dark. The incubation was terminated by centrifugation (5 min, 300 g) and the cells were washed once with drug-free medium. Following the appropriate drug treatment, the cells were transferred to 96-well microtiter plates (10^4 cells per well, 8 wells per sample). Plates were then kept in the dark at 37° C. in a humidified atmosphere containing 5% CO2. The assay is based on the ability of viable cells to reduce a yellow soluble tetrazolium salt, 3-(4,5-dimethylthiazol-2-yl)-2,5-diphenyl-2H-tetrazolium bromide (MTT, Aldrich-Sigma), to an insoluble purple formazan precipitate. Following incubation of the plates for 4 days (to allow control cells to increase in number by approximately 10 fold), 20 μL of MTT solution (5 mg/mL in phosphate-buffered saline) was added to each well and the plates further incubated for 5 h. […] The optical density was then read at a wavelength of 550 nm on a Titertek Multiscan ELISA plate reader, and a dose-response curve was constructed. […]

The test system of test [2] is A2780 parental cell line. The test is described as follows: A2780 assay, in vitro cytotoxicity (MTT). It is filed as cell-based. The following applies: Homo sapiens, A2780 cells, 72 hours incubation, absorbance 540 nm. How it is done: as §1
A2780 parental cell line was grown in Dulbecco's Modified Eagles' Media (DMEM) containing ˜10% Foetal Calf Serum (FCS) and ˜1% 200 mM L-Glutamine solution and grown in Corning Cellbind 75 cm^2 flasks.
190 μl cell suspension was added (at 1×10^4) to each well of columns 2 to 11 of a 96 well plate (Nunc 96F flat bottom TC plate). 190 μl of media was added to each well of columns 1 and 12. The media was Dulbecco's Modified Eagles' Media (DMEM) (which included ˜10% Foetal Calf Serum (FCS) and ˜1% 200 mM L-Glutamine solution).
Plates were incubated overnight at 37° C. before addition of drug if cells were adherent. 200 μM of the test compound solutions (in 100% DMSO) were serially diluted across a 96 well plate. Each resulting point was then further diluted 1/10 into sterile distilled water (SDW).
To the cell negative blanks and compound negative control wells, 10% DMSO was added at 5% v/v. Assay plates were incubated for the following durations at 37° C. in 5% CO2 in a humidified incubator for 72 hours. Following incubation, MTT solution to a final concentration of […] was added to each well. Plates were then incubated for a further 4 hours at 37° C. in 5% CO2 in a humidified incubator. […]
Plates were read at 540 nm absorbance using an Envision plate reader. Data was analysed using Microsoft Excel and GraphPad Prism and IC50 values obtained.

The IC50 is the point on the concentration scale where inhibition reaches its midpoint. In test [1], `COc1ccc(C2=CN3C(=O)c4cc(OC)c(OCCCCCOc5cc6c(cc5OC)C(=O)N5C=C(c7ccc(N)cc7)C[C@H]5C=N6)cc4N=C[C@@H]3C2)cc1` [Compound 13, (S)-2-(4-aminophenyl)-7-methoxy-8-(5-((S)-7-methoxy-2-(4-methoxyphenyl)-5-oxo-5,11a-dihydro-1H-pyrrolo[2,1-c][1,4]benzodiazepine-8-yloxy)pentyloxy)-1H-pyrrolo[2,1-c][1,4]benzodiazepine-5(11aH)-one] showed an IC50 of 30 µM. On to `COc1ccc(C2=CN3C(=O)c4cc(OC)c(OCCCOc5cc6c(cc5OC)C(=O)N5C=C(c7ccc(N)cc7)C[C@H]5C=N6)cc4N=C[C@@H]3C2)cc1` [Compound 11, (S)-2-(4-aminophenyl)-7-methoxy-8-(3-((S)-7-methoxy-2-(4-methoxyphenyl)-5-oxo-5,11a-dihydro-1H-pyrrolo[2,1-c][1,4]benzodiazepine-8-yloxy)propoxy)-1H-pyrrolo[2,1-c][1,4]benzodiazepine-5(11aH)-one], for which the IC50 in test [2] was found to be 11.7 µM.
